Test results published in article PMC6112376, “Comprehensive Analyses and Prioritization of Tox21 10K Chemicals Affecting Mitochondrial Function by in-Depth Mechanistic Studies” (Environmental Health Perspectives, 2018).
Read-outs that look alike come from different tables or passages of the source.

Tests used:
[1] = system: HepG2 cells; conditions: cited from earlier work
[2] = system: rat primary hepatocytes; assay: MMP assay in rat primary hepatocytes; conditions: Rattus norvegicus, Hepatocyte
[3] = system: Caenorhabditis elegans (Bristol N2); assay: C. elegans larval development and growth assay
[4] = system: Caenorhabditis elegans strain PE255; assay: In vivo C. elegans ATP status assay
[5] = system: HepG2 cells; assay: ROS-Glo hydrogen peroxide (ROS) assay; type: cell-based, human
[6] = system: isolated rat liver mitochondria; assay: Oxygen consumption, Clark-type oxygen electrode; type: biochemical
[7] = system: p53 (p53-bla HCT-116 cells); assay: p53 β-lactamase reporter gene assay; type: cell-based, human; conditions: 16 h incubation; mean±SD of three experiments
[8] = system: rat primary hepatocytes
[9] = system: HepG2 cells; assay: cells; conditions: Homo sapiens
[10] = system: HepG2 cells; assay: Intracellular ATP content (cell viability) assay; type: cell-based, human
[11] = system: hNSC; assay: MMP assay in human neural stem cells (hNSC); type: cell-based; conditions: Homo sapiens, Neural stem cell, 1 h, read-out: hNSC IC50 (MMP)
[12] = system: Nrf2/ARE (ARE-bla HepG2 cells); assay: ARE β-lactamase reporter gene assay; type: cell-based, human; conditions: Homo sapiens, HepG2; 16 h incubation; mean±SD of three experiments; read-out: ARE (HepG2) EC50
[13] = system: HeLa cells expressing YFP-Parkin; assay: Parkin translocation assay; type: cell-based, human

For `O=C(Nc1ccccc1)Nc1cnns1` [Thidiazuron], the “MMP assays efficacy (%) qHTS-HepG2” value [1] is listed as -126±9%, the IC50 ([1]; read-out: MMP assays IC50 (µM), qHTS-HepG2) is listed as 3.43 ± 0.73 µM and the IC50 ([2]; 1 h, read-out: Rat hepatocytes IC50 (MMP)) is listed as 14.7 µM. The IC50 ([2]; read-out: MMP assays IC50 (µM) Rat Hepatocytes) was 4.56 ± 2.78 µM, the “EXT: mean difference in nematode size relative to plate controls” value ([3]; 0.5 µM) was 0.1764 and the “EXT: mean difference in nematode size relative to plate controls” value ([3]; 1 µM) was 0.07124. The “EXT: mean difference in nematode size relative to plate controls” value ([3]; 5 µM) was 0.08978, the “EXT: mean difference in nematode size relative to plate controls” value ([3]; 10 µM) was 0.07446 and the “EXT: mean difference in nematode size relative to plate controls” value ([3]; 25 µM) was 0.09242. The “EXT: mean difference in nematode size relative to plate controls” value ([3]; 50 µM) was 0.2069, the “EXT: mean difference in nematode size relative to plate controls” value ([3]; 75 µM) was 0.07987 and the “effect on larval growth (in words)” value ([3]; 0.5–100μM) was “did not affect growth”. For the same compound, the “LUM: mean difference in luminescence (ATP content) relative to plate controls” value ([4]; 0.5 µM) was 0.0432, the “LUM: mean difference in luminescence (ATP content) relative to plate controls” value ([4]; 1 µM) was 0.1041 and the “LUM: mean difference in luminescence (ATP content) relative to plate controls” value ([4]; 5 µM) was 0.03776. For the same compound, the “LUM: mean difference in luminescence (ATP content) relative to plate controls” value ([4]; 10 µM) was 0.1711, the “LUM: mean difference in luminescence (ATP content) relative to plate controls” value ([4]; 25 µM) was 0.3608 and the “LUM: mean difference in luminescence (ATP content) relative to plate controls” value ([4]; 50 µM) was 0.588. The “LUM: mean difference in luminescence (ATP content) relative to plate controls” value ([4]; 75 µM) was 0.6504, the “LUM: mean difference in luminescence (ATP content) relative to plate controls” value ([4]; 100 µM) was 0.4761 and the “effect on ATP content (in words)” value ([4]; 0.5–100μM) was “statistically significant decreases in ATP content”. For the same compound, the minimal effective concentration ([4]; Caenorhabditis elegans, read-out: LEC LUM: lowest effect concentration for luminescence, a measure of nematode ATP content) was 50 µM, the “ROS (HepG2) EC50” value [5] was “Inactive” and the “Potential Mechanism” value [6] was “Uncoupler”. For the same compound, the “I-ADP, % of control (O2 consumption rate)” value ([6]; 0.16 µM) was 93 (51.1) % of control, the “I-sub, % of control (O2 consumption rate)” value ([6]; 0.16 µM) was 104 (13.6) % of control and the “II-ADP, % of control (O2 consumption rate)” value (from here on “II-ADP, % of control”) ([6]; 0.16 µM) was 91 (80.1) % of control. For the same compound, the “II-sub, % of control (O2 consumption rate)” value (from here on “II-sub, % of control”) ([6]; 0.16 µM) was 100 (24.5) % of control, the “I-ADP, % of control (O2 consumption rate)” value ([6]; 0.8 µM) was 74 (40.3) % of control and the “I-sub, % of control (O2 consumption rate)” value ([6]; 0.8 µM) was 95 (12.4) % of control. The “II-ADP, % of control” value ([6]; 0.8 µM) was 93 (82.2) % of control, the “II-sub, % of control” value ([6]; 0.8 µM) was 106 (26.1) % of control and the “I-ADP, % of control (O2 consumption rate)” value ([6]; 4 µM) was 87 (47.5) % of control. For the same compound, the “I-sub, % of control (O2 consumption rate)” value ([6]; 4 µM) was 134 (17.5) % of control, the “II-ADP, % of control” value ([6]; 4 µM) was 95 (83.6) % of control and the “II-sub, % of control” value ([6]; 4 µM) was 119 (29.3) % of control. The “I-ADP, % of control (O2 consumption rate)” value ([6]; 20 µM) was 99 (54.4) % of control, the “I-sub, % of control (O2 consumption rate)” value ([6]; 20 µM) was 311 (40.8) % of control and the “II-ADP, % of control” value ([6]; 20 µM) was 104 (92.1) % of control. For the same compound, the “II-sub, % of control” value ([6]; 20 µM) was 269 (66.2) % of control, the “p53 (HCT-116) EC50” value [7] was “Inactive” and the “MMP assays efficacy (%) Rat Hepatocytes” value [8] was -136±46%. For the same compound, the “Rat hepatocytes (efficacy) (MMP)” value [8] was 14.7±2.52 ( −98.5±15.2 ) %, the IC50 ([9]; HepG2, 1 h, read-out: HepG2 IC50 Galactose (MMP)) was 14.6 µM and the IC50 ([9]; HepG2, 1 h, read-out: HepG2 IC50 Glucose (MMP)) was 12 µM. The IC50 ([9]; HepG2, read-out: MMP assays IC50 (µM) HepG2) was 6.31 µM, the Emax ([9]; HepG2, read-out: MMP assays efficacy (%) HepG2) was 104% and the “ATP (HepG2, galactose) IC50” value [10] was “Inactive”. The “ATP (HepG2, glucose) IC50” value [10] was “Inactive”, the IC50 [11] was 8.39 µM and the EC50 [12] was 27.3 ± 9.74 µM. The Parkin recruitment [13] was “Inactive”.
